From ChEMBL document CHEMBL3352739, “Comparative in vivo evaluation of polyalkoxy substituted 4H-chromenes and oxa-podophyllotoxins as microtubule destabilizing agents in the phenotypic sea urchin embryo assay” (2014)

Assays:
SW-620 = assay: Growth inhibition of human SW620 cells after 48 hrs by sulforhodamine B assay; type: functional; settings: SW-620, 48 h
U-251 = assay: Growth inhibition of human U251 cells after 48 hrs by sulforhodamine B assay; type: functional; settings: U-251, 48 h
NCI-H460 = assay: Growth inhibition of human NCI-H460 cells after 48 hrs by sulforhodamine B assay; type: functional; settings: NCI-H460, 48 h
HOP-62 = assay: Growth inhibition of human HOP62 cells after 48 hrs by sulforhodamine B assay; type: functional; settings: HOP-62, 48 h
[1] = Growth inhibition of human HCT15 cells after 48 hrs by sulforhodamine B assay; type: functional; settings: HCT-15, 48 h
SN12C = assay: Growth inhibition of human SN12C cells after 48 hrs by sulforhodamine B assay; type: functional
A549 = assay: Growth inhibition of human A549/ATCC cells after 48 hrs by sulforhodamine B assay; type: functional; settings: A549, 48 h
[2] = Growth inhibition of human SF295 cells after 48 hrs by sulforhodamine B assay; type: functional; settings: SF-295, 48 h
[3] = Growth inhibition of human NCI-ADR-RES cells after 48 hrs by sulforhodamine B assay; type: functional
[4] = Growth inhibition of human BT549 cells after 48 hrs by sulforhodamine B assay; type: functional; settings: BT-549, 48 h
NCI-H322M = assay: Growth inhibition of human NCI-H322M cells after 48 hrs by sulforhodamine B assay; type: functional
MDA-MB-435 = assay: Growth inhibition of human MDA-MB-435 cells after 48 hrs by sulforhodamine B assay; type: functional; settings: MDA-MB-435, 48 h
[5] = Growth inhibition of human HCC2998 cells after 48 hrs by sulforhodamine B assay; type: functional; settings: HCC 2998, 48 h
[6] = Growth inhibition of human Hs 578T cells after 48 hrs by sulforhodamine B assay; type: functional
[7] = Growth inhibition of human OVCAR5 cells after 48 hrs by sulforhodamine B assay; type: functional; settings: OVCAR-5, 48 h
[8] = Growth inhibition of human RPMI8226 cells after 48 hrs by sulforhodamine B assay; type: functional; settings: RPMI-8226, 48 h
T47D = assay: Growth inhibition of human T47D cells after 48 hrs by sulforhodamine B assay; type: functional
786-0 = assay: Growth inhibition of human 786-0 cells after 48 hrs by sulforhodamine B assay; type: functional; settings: 786-0, 48 h
[9] = Growth inhibition of human HCT116 cells after 48 hrs by sulforhodamine B assay; type: functional; settings: HCT-116, 48 h
[10] = Growth inhibition of human OVCAR8 cells after 48 hrs by sulforhodamine B assay; type: functional; settings: OVCAR-8, 48 h
[11] = Growth inhibition of human SF539 cells after 48 hrs by sulforhodamine B assay; type: functional; settings: SF-539, 48 h
KM12 = assay: Growth inhibition of human KM12 cells after 48 hrs by sulforhodamine B assay; type: functional; settings: KM12, 48 h
SF-268 = assay: Growth inhibition of human SF268 cells after 48 hrs by sulforhodamine B assay; type: functional; settings: SF-268, 48 h
[12] = Growth inhibition of human MOLT4 cells after 48 hrs by sulforhodamine B assay; type: functional; settings: MOLT-4, 48 h
[13] = Growth inhibition of human LOXIMVI cells after 48 hrs by sulforhodamine B assay; type: functional; settings: LOX IMVI
[14] = Growth inhibition of human UACC62 cells after 48 hrs by sulforhodamine B assay; type: functional; settings: UACC-62, 48 h
HL-60(TB) = assay: Growth inhibition of human HL-60(TB) cells after 48 hrs by sulforhodamine B assay; type: functional; settings: HL-60, 48 h
Malme-3M = assay: Growth inhibition of human MALME-3M cells after 48 hrs by sulforhodamine B assay; type: functional
TK-10 = assay: Growth inhibition of human TK10 cells after 48 hrs by sulforhodamine B assay; type: functional; settings: TK-10, 48 h
[15] = Growth inhibition of human OVCAR3 cells after 48 hrs by sulforhodamine B assay; type: functional; settings: OVCAR-3, 48 h
Paracentrotus lividus [16] = assay: Antimitotic microtubule destabilizing activity in Paracentrotus lividus L embryos assessed as induction of cleavage alteration
DU-145 = assay: Growth inhibition of human DU145 cells after 48 hrs by sulforhodamine B assay; type: functional; settings: DU-145, 48 h
SK-MEL-2 = assay: Growth inhibition of human SK-MEL-2 cells after 48 hrs by sulforhodamine B assay; type: functional; settings: SK-MEL-2, 48 h
IGROV-1 = assay: Growth inhibition of human IGROV1 cells after 48 hrs by sulforhodamine B assay; type: functional; settings: IGROV-1, 48 h
[17] = Growth inhibition of human PC3 cells after 48 hrs by sulforhodamine B assay; type: functional; settings: PC-3, 48 h
Paracentrotus lividus [18] = assay: Antimitotic microtubule destabilizing activity in Paracentrotus lividus L embryos assessed as induction of embryo spinning
CAKI-1 = assay: Growth inhibition of human CAKI-1 cells after 48 hrs by sulforhodamine B assay; type: functional; settings: CAKI-1, 48 h
SNB-75 = assay: Growth inhibition of human SNB75 cells after 48 hrs by sulforhodamine B assay; type: functional; settings: SNB-75, 48 h
MDA-MB-468 = assay: Growth inhibition of human MDA-MB-468 cells after 48 hrs by sulforhodamine B assay; type: functional; settings: MDA-MB-468, 48 h
[19] = Growth inhibition of human OVCAR4 cells after 48 hrs by sulforhodamine B assay; type: functional; settings: OVCAR-4, 48 h
[20] = Growth inhibition of human EKVX cells after 48 hrs by sulforhodamine B assay; type: functional
MDA-MB-231 = assay: Growth inhibition of human MDA-MB-231 cells after 48 hrs by sulforhodamine B assay; type: functional; settings: MDA-MB-231, 48 h
HT-29 = assay: Growth inhibition of human HT-29 cells after 48 hrs by sulforhodamine B assay; type: functional; settings: HT-29, 48 h
M14 = assay: Growth inhibition of human M14 cells after 48 hrs by sulforhodamine B assay; type: functional; settings: M14, 48 h
CCRF-CEM = assay: Growth inhibition of human CCRF-CEM cells after 48 hrs by sulforhodamine B assay; type: functional
NCI-H226 = assay: Growth inhibition of human NCI-H226 cells after 48 hrs by sulforhodamine B assay; type: functional; settings: NCI-H226, 48 h
NCI-H522 = assay: Growth inhibition of human NCI-H522 cells after 48 hrs by sulforhodamine B assay; type: functional; settings: NCI-H522, 48 h
SK-MEL-28 = assay: Growth inhibition of human SK-MEL-28 cells after 48 hrs by sulforhodamine B assay; type: functional; settings: SK-MEL-28, 48 h
[21] = Growth inhibition of human UACC257 cells after 48 hrs by sulforhodamine B assay; type: functional; settings: UACC-257, 48 h
[22] = Growth inhibition of human UO31 cells after 48 hrs by sulforhodamine B assay; type: functional; settings: UO-31, 48 h
SK-OV-3 = assay: Growth inhibition of human SKOV3 cells after 48 hrs by sulforhodamine B assay; type: functional; settings: SK-OV-3, 48 h
MCF7 = assay: Growth inhibition of human MCF7 cells after 48 hrs by sulforhodamine B assay; type: functional; settings: MCF7, 48 h
[23] = Cytotoxicity against human NCI60 cells; type: functional
[24] = Growth inhibition of human COLO205 cells after 48 hrs by sulforhodamine B assay; type: functional; settings: COLO 205, 48 h
NCI-H23 = assay: Growth inhibition of human NCI-H23 cells after 48 hrs by sulforhodamine B assay; type: functional; settings: NCI-H23, 48 h
SNB-19 = assay: Growth inhibition of human SNB19 cells after 48 hrs by sulforhodamine B assay; type: functional; settings: SNB-19, 48 h
SR = assay: Growth inhibition of human SR cells after 48 hrs by sulforhodamine B assay; type: functional
A498 = assay: Growth inhibition of human A498 cells after 48 hrs by sulforhodamine B assay; type: functional; settings: A498, 48 h
Paracentrotus lividus [25] = assay: Antimitotic microtubule destabilizing activity in Paracentrotus lividus L embryos assessed as induction of cleavage arrest
[26] = Growth inhibition of human RXF393 cells after 48 hrs by sulforhodamine B assay; type: functional; settings: RXF 393, 48 h
SK-MEL-5 = assay: Growth inhibition of human SK-MEL-5 cells after 48 hrs by sulforhodamine B assay; type: functional; settings: SK-MEL-5, 48 h

COc1cccc(C2C(C#N)=C(N)Oc3cc4c(cc32)OCO4)c1 (stereo unspecified)
GI50 (SW-620): 36.5 nM
GI50 (U-251): 46.2 nM
GI50 (NCI-H460): 44 nM
GI50 (HOP-62): 43.2 nM
GI50 [1]: 44.7 nM
GI50 (SN12C): 79.2 nM
GI50 (A549): 62.5 nM
GI50 [2]: 34.4 nM
GI50 [3]: 30.2 nM
GI50 [4]: 87.4 nM
GI50 (NCI-H322M): 2110 nM
GI50 (MDA-MB-435): 20.3 nM
GI50 [5]: 101 nM
GI50 [6]: 31.6 nM
GI50 [7]: 447 nM
GI50 [8]: 105 nM
GI50 (T47D): 50.2 nM
GI50 (786-0): 58.7 nM
GI50 [9]: 49.8 nM
GI50 [10]: 97.1 nM
GI50 [11]: 34.4 nM
GI50 (KM12): 36.5 nM
GI50 (SF-268): 54.1 nM
GI50 [12]: 6.17 nM
GI50 [13]: 46 nM
GI50 [14]: 43.4 nM
GI50 (HL-60(TB)): 24.2 nM
GI50 (Malme-3M): 50.1 nM
GI50 (TK-10): 6010 nM
GI50 [15]: 25.6 nM
EC (Paracentrotus lividus [16]): 0.005 µM
GI50 (DU-145): 84.5 nM
GI50 (SK-MEL-2): 30.1 nM
GI50 (IGROV-1): 97.3 nM
GI50 [17]: 65.6 nM
EC (Paracentrotus lividus [18]): 0.2 µM
GI50 (CAKI-1): 40.9 nM
GI50 (SNB-75): 23.8 nM
GI50 (MDA-MB-468): 25.4 nM
GI50 [19]: 2510 nM
GI50 [20]: 259 nM
GI50 (MDA-MB-231): 2170 nM
GI50 (HT-29): 46.2 nM
GI50 (M14): 54.9 nM
GI50 (CCRF-CEM): 36 nM
GI50 (NCI-H226): 45.5 nM
GI50 (NCI-H522): 23.1 nM
GI50 (SK-MEL-28): 70 nM
GI50 [21]: 47.1 nM
GI50 [22]: 58.9 nM
GI50 (SK-OV-3): 36.2 nM
GI50 (MCF7): 36.4 nM
GI50 [23]: 65 nM
GI50 [24]: 43.2 nM
GI50 (NCI-H23): 97.7 nM
GI50 (SNB-19): 54.3 nM
GI50 (SR): 30.2 nM
GI50 (A498): 29.1 nM
EC (Paracentrotus lividus [25]): 0.05 µM
GI50 [26]: 29 nM
GI50 (SK-MEL-5): 37.8 nM
